Test results taken from ChEMBL document CHEMBL1158791, “Grayanane diterpenoids from the flowers of Rhododendron molle with cytotoxic activity against a Spodoptera frugiperda cell line” (J Nat Prod, 2005).
≈ marks a conversion by molar mass, not a printed value.

Assay: Cytotoxicity against Spodoptera frugiperda Sf9 cells after 48 hrs
Type: functional, cell-based
Conditions: Sf9, 48 h

| SMILES | IC50 [µg/mL] |
| --- | --- |
| C=C1[C@@H]2[C@H](O)[C@H](O)C(C)(C)[C@@]2(O)[C@H](O)C[C@]23C[C@@](C)(O)[C@H](CC[C@@H]12)[C@H]3OC(C)=O [RHODOMOLIN B] | 25.6 (≈ 62.4 µM) |
| C=C1[C@@H]2[C@H](OC)[C@H](O)C(C)(C)[C@@]2(O)[C@H](O)C[C@]23C[C@@](C)(O)[C@H](CC[C@@H]12)[C@H]3O [RHODOMOLIN A] | 37.8 (≈ 98.8 µM) |
| CC1(C)[C@H]2O[C@H]2[C@H]2[C@](C)(O)[C@@H]3CC[C@@H]4[C@H](O)[C@@]3(C[C@@H](O)[C@@]21O)C[C@@]4(C)O [RHODOJAPONIN] | 12.6 (≈ 34.2 µM) |
| C/C=C(\C)C(=O)O[C@H]1C[C@@H](OC(C)=O)[C@@]2(C(=O)OC)CO[C@H]3[C@@H](O)[C@@](C)([C@]45O[C@@]4(C)[C@@H]4C[C@H]5O[C@@H]5OC=C[C@@]54O)[C@H]4[C@]1(CO[C@]4(O)C(=O)OC)[C@@H]32 [AZADIRACHTIN A] | 20.3 (≈ 28.2 µM) |
